From ChEMBL document CHEMBL1909046, “DrugMatrix in vitro pharmacology data”

Legend:
[1] = target: T1, Neuropeptide Y receptor type 1 (Homo sapiens, UniProt P25929); type: cell membranes, Membrane; conditions: sk-n-mc; also: in other assays of this panel Not Active means under 50% inhibition at 10 µM
T1 sequence (P25929 whole entry): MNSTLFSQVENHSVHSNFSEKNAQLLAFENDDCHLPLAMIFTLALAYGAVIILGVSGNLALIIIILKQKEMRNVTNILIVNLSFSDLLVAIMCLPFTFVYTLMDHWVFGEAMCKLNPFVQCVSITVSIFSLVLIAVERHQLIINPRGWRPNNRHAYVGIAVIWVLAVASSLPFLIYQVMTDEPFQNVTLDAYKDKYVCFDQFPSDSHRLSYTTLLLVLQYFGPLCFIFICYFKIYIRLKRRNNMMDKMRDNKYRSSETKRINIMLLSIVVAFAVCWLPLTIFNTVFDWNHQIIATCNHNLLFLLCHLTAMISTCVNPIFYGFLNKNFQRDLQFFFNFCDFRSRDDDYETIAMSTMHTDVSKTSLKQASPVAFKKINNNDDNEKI

Glycine receptor = Glycine receptor (Rattus norvegicus, UniProt P22771+P24524+P07727+P20781); type: cell membranes, Wistar, Spinal cord, Membrane; also: in other assays of this panel Not Active means under 50% inhibition at 10 µM
Nitric oxide synthase 1 = Nitric oxide synthase 1 (Rattus norvegicus, UniProt P29476); type: tissue-based, Cerebellum; also: in other assays of this panel Not Active means under 50% inhibition at 10 µM
Chain of Nitric oxide synthase 1 (P29476 whole entry): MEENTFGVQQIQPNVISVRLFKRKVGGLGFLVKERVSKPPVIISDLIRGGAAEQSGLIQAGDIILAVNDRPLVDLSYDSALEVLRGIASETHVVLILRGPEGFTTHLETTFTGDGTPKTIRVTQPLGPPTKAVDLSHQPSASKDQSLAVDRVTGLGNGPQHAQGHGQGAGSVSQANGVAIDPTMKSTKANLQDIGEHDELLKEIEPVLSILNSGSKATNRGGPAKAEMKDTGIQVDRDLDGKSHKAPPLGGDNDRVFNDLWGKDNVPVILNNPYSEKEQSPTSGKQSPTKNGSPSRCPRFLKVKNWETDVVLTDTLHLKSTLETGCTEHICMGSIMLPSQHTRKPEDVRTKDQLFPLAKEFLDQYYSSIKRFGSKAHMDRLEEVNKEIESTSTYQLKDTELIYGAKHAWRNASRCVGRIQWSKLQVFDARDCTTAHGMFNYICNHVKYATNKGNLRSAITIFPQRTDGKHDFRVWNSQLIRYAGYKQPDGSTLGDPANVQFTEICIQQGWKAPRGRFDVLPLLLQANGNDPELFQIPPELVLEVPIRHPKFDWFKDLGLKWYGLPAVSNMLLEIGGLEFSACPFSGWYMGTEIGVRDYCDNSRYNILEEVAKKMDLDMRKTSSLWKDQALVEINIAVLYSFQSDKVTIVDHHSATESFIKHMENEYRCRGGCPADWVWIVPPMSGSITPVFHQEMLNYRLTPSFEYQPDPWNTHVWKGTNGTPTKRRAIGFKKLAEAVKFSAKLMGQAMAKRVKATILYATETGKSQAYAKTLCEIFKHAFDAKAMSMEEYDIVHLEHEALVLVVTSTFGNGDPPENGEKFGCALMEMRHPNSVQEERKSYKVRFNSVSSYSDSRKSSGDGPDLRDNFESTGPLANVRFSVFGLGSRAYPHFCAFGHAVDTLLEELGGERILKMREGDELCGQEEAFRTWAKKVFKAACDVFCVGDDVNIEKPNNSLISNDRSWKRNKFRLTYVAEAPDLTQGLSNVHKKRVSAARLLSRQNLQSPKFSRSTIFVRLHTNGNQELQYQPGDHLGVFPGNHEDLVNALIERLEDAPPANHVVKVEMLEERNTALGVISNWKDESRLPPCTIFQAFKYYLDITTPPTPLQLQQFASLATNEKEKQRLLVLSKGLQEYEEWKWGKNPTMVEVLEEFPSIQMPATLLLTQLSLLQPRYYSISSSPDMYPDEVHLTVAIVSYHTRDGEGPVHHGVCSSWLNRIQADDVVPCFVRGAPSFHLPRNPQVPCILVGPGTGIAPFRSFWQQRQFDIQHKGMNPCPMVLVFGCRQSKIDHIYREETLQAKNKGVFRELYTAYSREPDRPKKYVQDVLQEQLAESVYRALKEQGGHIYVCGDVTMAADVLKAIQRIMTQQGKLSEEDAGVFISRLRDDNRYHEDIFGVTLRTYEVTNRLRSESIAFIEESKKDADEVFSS

[2] = target: T2, C-X-C chemokine receptor type 2 (Homo sapiens, UniProt P25025); type: cell membranes, CHO-K1, Membrane; conditions: cho-k1; also: in other assays of this panel Not Active means under 50% inhibition at 10 µM
T2 sequence (P25025 whole entry): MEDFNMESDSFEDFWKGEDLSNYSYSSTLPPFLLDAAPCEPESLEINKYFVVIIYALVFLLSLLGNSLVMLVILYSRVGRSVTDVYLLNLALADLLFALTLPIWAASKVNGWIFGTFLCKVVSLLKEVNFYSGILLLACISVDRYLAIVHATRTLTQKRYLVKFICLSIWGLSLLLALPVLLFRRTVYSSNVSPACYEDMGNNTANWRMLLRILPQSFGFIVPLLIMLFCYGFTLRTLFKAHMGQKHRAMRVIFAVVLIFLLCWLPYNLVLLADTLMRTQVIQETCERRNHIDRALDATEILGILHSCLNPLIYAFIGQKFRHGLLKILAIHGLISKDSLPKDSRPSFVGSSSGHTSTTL

[3] = target: 5-hydroxytryptamine receptor 2B (Homo sapiens, UniProt P41595); type: cell membranes, CHO-K1, Membrane; also: in other assays of this panel Not Active means under 50% inhibition at 10 µM
Chain of 5-hydroxytryptamine receptor 2B (P41595 whole entry): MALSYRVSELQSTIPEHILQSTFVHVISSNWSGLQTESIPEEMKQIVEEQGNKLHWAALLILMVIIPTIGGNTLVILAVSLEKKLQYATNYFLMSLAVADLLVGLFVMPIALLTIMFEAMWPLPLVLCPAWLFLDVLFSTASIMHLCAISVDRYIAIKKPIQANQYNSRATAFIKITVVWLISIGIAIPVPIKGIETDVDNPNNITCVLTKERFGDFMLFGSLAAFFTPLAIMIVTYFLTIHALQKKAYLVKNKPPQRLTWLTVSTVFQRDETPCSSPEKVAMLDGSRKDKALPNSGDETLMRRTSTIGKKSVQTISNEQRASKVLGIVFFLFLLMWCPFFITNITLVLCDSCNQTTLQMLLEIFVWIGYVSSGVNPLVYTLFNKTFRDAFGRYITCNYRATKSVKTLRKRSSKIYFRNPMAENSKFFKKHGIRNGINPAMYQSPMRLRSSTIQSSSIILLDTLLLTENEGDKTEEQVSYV

[4] = target: Tyrosine-protein kinase Fyn (Homo sapiens, UniProt P06241); experiment: biochemical; type: cell-based, Insect cells; conditions: insect cells
Chain of Tyrosine-protein kinase Fyn (P06241 whole entry): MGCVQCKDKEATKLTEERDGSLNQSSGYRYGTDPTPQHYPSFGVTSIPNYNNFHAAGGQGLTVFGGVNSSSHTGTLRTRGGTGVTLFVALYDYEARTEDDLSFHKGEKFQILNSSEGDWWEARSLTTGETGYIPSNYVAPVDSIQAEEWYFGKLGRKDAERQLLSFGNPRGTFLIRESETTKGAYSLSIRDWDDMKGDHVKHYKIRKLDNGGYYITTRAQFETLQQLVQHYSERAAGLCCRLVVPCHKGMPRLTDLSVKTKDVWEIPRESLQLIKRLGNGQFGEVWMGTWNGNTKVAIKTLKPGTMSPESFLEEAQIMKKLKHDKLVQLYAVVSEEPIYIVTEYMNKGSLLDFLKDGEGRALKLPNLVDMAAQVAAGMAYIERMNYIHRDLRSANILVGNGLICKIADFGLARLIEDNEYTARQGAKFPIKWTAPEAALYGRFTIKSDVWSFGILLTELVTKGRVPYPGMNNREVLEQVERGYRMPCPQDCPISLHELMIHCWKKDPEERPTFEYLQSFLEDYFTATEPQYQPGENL

[5] = DRUGMATRIX: Glutamate, NMDA, Agonism radioligand binding (ligand: [3H] CGP-39653); type: cell membranes, Rattus norvegicus, Wistar, Cerebral cortex, Membrane; conditions: Not Active = under 50% inhibition at 10 µM
[6] = target: Beta-3 adrenergic receptor (Homo sapiens, UniProt P13945); experiment: DRUGMATRIX: Adrenergic beta3 radioligand binding (ligand: [125I] Cyanopindolol); type: cell membranes, HEK293, Membrane; conditions: hek293; Not Active = under 50% inhibition at 10 µM
Chain of Beta-3 adrenergic receptor (P13945 whole entry): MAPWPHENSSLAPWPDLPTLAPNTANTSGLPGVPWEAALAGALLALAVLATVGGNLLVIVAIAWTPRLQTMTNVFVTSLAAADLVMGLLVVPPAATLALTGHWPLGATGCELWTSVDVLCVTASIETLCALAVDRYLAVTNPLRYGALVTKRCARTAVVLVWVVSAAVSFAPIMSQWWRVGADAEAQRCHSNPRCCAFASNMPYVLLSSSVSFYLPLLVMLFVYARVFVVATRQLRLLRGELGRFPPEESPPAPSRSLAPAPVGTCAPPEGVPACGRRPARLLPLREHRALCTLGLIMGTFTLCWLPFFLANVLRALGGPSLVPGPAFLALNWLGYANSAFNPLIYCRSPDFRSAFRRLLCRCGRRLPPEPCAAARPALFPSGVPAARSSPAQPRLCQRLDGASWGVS

Row | Compound | IC50 [1] | IC50 (Glycine receptor) | IC50 (Nitric oxide synthase 1) | IC50 [2] | IC50 ([3]; cho-k1) | IC50 [4] | IC50 [5] | Ki [5] | IC50 [6] | IC50 ([3]; read-out: IC50) | Ki ([3]; read-out: Ki) | Ki [1] | Ki (Glycine receptor) | Ki (Nitric oxide synthase 1) | Ki [2] | Ki ([3]; cho-k1) | Ki [6]
1 | CC(C)(C#N)c1cc(Cn2cncn2)cc(C(C)(C)C#N)c1 [ANASTROZOLE] | Not Active | Not Active | Not Active | Not Active | Not Active | Not Active | Not Active | Not Active | Not Active | – | – | – | – | – | – | – | –
2 | CC12CCC(CC1=O)C2(C)C (centres undefined) [CAMPHOR] | Not Active | Not Active | Not Active | Not Active | Not Active | Not Active | Not Active | Not Active | Not Active | – | – | – | – | – | – | – | –
3 | CC12CCC(CC1)C(C)(C)O2 [EUCALYPTOL] | Not Active | Not Active | Not Active | Not Active | Not Active | Not Active | Not Active | Not Active | Not Active | – | – | – | – | – | – | – | –
4 | Cc1ccnc2c1NC(=O)c1cccnc1N2C1CC1 [NEVIRAPINE] | Not Active | Not Active | Not Active | Not Active | Not Active | Not Active | Not Active | Not Active | Not Active | – | – | – | – | – | – | – | –
5 | Clc1cc(Cl)c(OCC#CI)cc1Cl [HALOPROGIN] | Not Active | Not Active | Not Active | Not Active | Not Active | Not Active | Not Active | Not Active | Not Active | – | – | – | – | – | – | – | –
6 | Oc1ccccc1 [PHENOL] | Not Active | Not Active | Not Active | Not Active | Not Active | Not Active | Not Active | Not Active | Not Active | – | – | – | – | – | – | – | –
7 | CCCCCCNC(=O)n1cc(F)c(=O)[nH]c1=O [CARMOFUR] | Not Active | Not Active | Not Active | Not Active | Not Active | Not Active | Not Active | Not Active | Not Active | – | – | – | – | – | – | – | –
8 | Nc1ccc(C(=O)O)c(O)c1 [AMINOSALICYLIC ACID] | Not Active | Not Active | Not Active | Not Active | Not Active | Not Active | Not Active | Not Active | Not Active | – | – | – | – | – | – | – | –
9 | COc1cc(NC(C)CCCN)c2ncccc2c1 (centres undefined) [PRIMAQUINE] | Not Active | Not Active | Not Active | Not Active | Not Active | Not Active | Not Active | Not Active | Not Active | – | – | – | – | – | – | – | –
10 | Cc1cc(C(C)(C)C)c(O)c(C)c1CC1=NCCN1 [OXYMETAZOLINE] | Not Active | Not Active | Not Active | Not Active | – | Not Active | Not Active | Not Active | Not Active | 3060 nM | 1940 nM | – | – | – | – | – | –
11 | O=c1[nH]cnc2c1ncn2[C@H]1CC[C@@H](CO)O1 [DIDANOSINE] | Not Active | Not Active | Not Active | Not Active | Not Active | Not Active | Not Active | Not Active | Not Active | – | – | – | – | – | – | – | –
12 | CC(=O)[C@]1(O)Cc2c(O)c3c(c(O)c2[C@@H](O[C@H]2C[C@H](N)[C@H](O)[C@H](C)O2)C1)C(=O)c1ccccc1C3=O [IDARUBICIN] | Not Active | Not Active | Not Active | Not Active | Not Active | Not Active | Not Active | Not Active | Not Active | – | – | – | – | – | – | – | –
13 | COC(=O)Nc1nc2ccc(Sc3ccccc3)cc2[nH]1 [FENBENDAZOLE] | Not Active | Not Active | Not Active | Not Active | Not Active | Not Active | Not Active | Not Active | Not Active | – | – | – | – | – | – | – | –
14 | CC(C)(c1ccc(O)cc1)c1ccc(O)cc1 [BISPHENOL A] | Not Active | Not Active | Not Active | Not Active | Not Active | Not Active | Not Active | Not Active | Not Active | – | – | – | – | – | – | – | –
15 | C=C(Cl)Cl [1,1-DICHLOROETHENE] | Not Active | Not Active | Not Active | Not Active | Not Active | Not Active | Not Active | Not Active | Not Active | – | – | – | – | – | – | – | –
16 | O=C(O)CCc1nc(-c2ccccc2)c(-c2ccccc2)o1 [OXAPROZIN] | Not Active | Not Active | Not Active | Not Active | Not Active | Not Active | Not Active | Not Active | Not Active | – | – | – | – | – | – | – | –
17 | NCC(CC(=O)O)c1ccc(Cl)cc1 (centres undefined) [BACLOFEN] | Not Active | Not Active | Not Active | Not Active | Not Active | Not Active | Not Active | Not Active | Not Active | – | – | – | – | – | – | – | –
18 | CC[C@H]1OC(=O)[C@H](C)[C@@H](O[C@H]2C[C@@](C)(OC)[C@@H](O)[C@H](C)O2)[C@H](C)[C@@H](O[C@@H]2O[C@H](C)C[C@H](N(C)C)[C@H]2O)[C@](C)(O)C[C@@H](C)C(=O)[C@H](C)[C@@H](O)[C@]1(C)O [ERYTHROMYCIN] | Not Active | Not Active | Not Active | Not Active | Not Active | Not Active | Not Active | Not Active | Not Active | – | – | – | – | – | – | – | –
19 | C=CCO [ALLYL ALCOHOL] | Not Active | Not Active | Not Active | Not Active | Not Active | Not Active | Not Active | Not Active | Not Active | – | – | – | – | – | – | – | –
20 | COC(=O)C[C@](O)(CCC(C)(C)O)C(=O)O[C@@H]1C(OC)=C[C@]23CCCN2CCc2cc4c(cc2[C@H]13)OCO4 [HARRINGTONINE] | Not Active | Not Active | Not Active | Not Active | Not Active | Not Active | Not Active | Not Active | Not Active | – | – | – | – | – | – | – | –
21 | CHROMIC CHLORIDE | Not Active | Not Active | Not Active | Not Active | Not Active | – | Not Active | Not Active | Not Active | – | – | Not Active | Not Active | Not Active | Not Active | Not Active | Not Active
22 | CC(N)Cc1c[nH]c2ccc(OCc3cccs3)cc12 (centres undefined) [BW-723C86] | Not Active | Not Active | Not Active | Not Active | – | Not Active | Not Active | Not Active | Not Active | – | – | – | – | – | – | – | –
23 | CNC[C@H](O)c1ccc(O)c(O)c1 [EPINEPHRINE] | Not Active | Not Active | Not Active | Not Active | Not Active | Not Active | – | – | Not Active | – | – | – | – | – | – | – | –
24 | COc1ccccc1OCCNCC(O)COc1cccc2[nH]c3ccccc3c12 (centres undefined) [CARVEDILOL] | Not Active | Not Active | Not Active | Not Active | – | Not Active | Not Active | Not Active | – | 23 nM | 15 nM | – | – | – | – | – | –
